# Literature values in patent US8877698B2, “Method and composition for disinfecting hard surfaces” (priority 2001, dated 2014).
# Test system: Mycobacterium tuberculosis var. bovis and poliovirus
smiles,measurement,value
CCO [ethanol],concentrations needed to kill resistant organisms,70-90%
